These results are taken from ChEMBL document CHEMBL1201862, “PubChem BioAssay data set” (2004).

Test systems include OVCAR-5; COLO 205; HCC 2998; MDA-MB-231; UACC-257; ACHN; OVCAR-8; HL-60; TK-10; A549; IGROV-1; DU-145; OVCAR-4; T47D; SF-539; SK-OV-3; NCI-H23; HCT-116; CCRF-CEM; RPMI-8226.
What all share (assay): NCI tumour cell line growth inhibition, 48 h

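These data come from cells grown in 96-well plates and exposed to compound for 48 hours at five concentrations. The concentration for 50% growth inhibition is given as GI50.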 Activity calls are given as the source filed them. Rule as the data show it: active = GI50 up to about 1.1 µM and inactive = higher. Peptide text beside a SMILES is read from it. * marks the point of attachment. Cbz = O=C(OCc1ccccc1)*

On to `O=C(O)CCC(NC(=O)OCc1ccccc1)C(=O)NC(Cc1c[nH]cn1)C(=O)O` (stereo not drawn) (Cbz-Glu-His-OH; configuration not given here), for which the GI50 in the test with OVCAR-5 was > 100 µM (inactive); with COLO 205, > 100 µM (inactive); with HCC 2998, > 100 µM (inactive); with MDA-MB-231 it was 37.1 µM (inactive); in the test with UACC-257, > 100 µM (inactive); with ACHN it was > 100 µM (inactive). The GI50 in the test on OVCAR-8, in the test with HL-60, in the test with TK-10, in the test with A549, in the test with IGROV-1 and with DU-145 was > 100 µM (inactive) each time. Further, the GI50 in the test with OVCAR-4, in the test with T47D, in the test on SF-539, in the test with SK-OV-3, in the test on NCI-H23 and with HCT-116 was > 100 µM (inactive) each time. In addition, the GI50 in the test with CCRF-CEM and in the test on RPMI-8226 was > 100 µM (inactive) throughout.
With `CC(CO)[C@H]1OC(=O)C=C2[C@@]13O[C@@H]3[C@H]1OC(=O)[C@@]3(C)[C@H]4O[C@H]4C[C@@]2(C)[C@@H]13` (stereo partly drawn), the GI50 is 3.78 µM (inactive) with OVCAR-5; 1.58 µM (inactive) in the test on COLO 205; 1.65 µM (inactive) with HCC 2998; 2.51 µM (inactive) with MDA-MB-231; 1.44 µM (inactive) in the test on UACC-257; 0.843 µM (active) in the test on ACHN. The GI50 with OVCAR-8 is 2.25 µM (inactive); with HL-60 it was 0.343 µM (active); in the test on TK-10, 2.07 µM (inactive); with A549 it was 1.87 µM (inactive); in the test on IGROV-1, 1.5 µM (inactive); in the test on DU-145 it was 1.39 µM (inactive). Also, the GI50 was 1.15 µM (inactive) in the test on OVCAR-4; 2.92 µM (inactive) with T47D; 1.83 µM (inactive) with SF-539; 3.02 µM (inactive) with SK-OV-3; 2.43 µM (inactive) with NCI-H23; 1.07 µM (active) with HCT-116. For the same molecule, the GI50 was 0.5 µM (active) with CCRF-CEM and 2.22 µM (inactive) in the test with RPMI-8226.
Turning to `Cc1cccc2sc(NC(=O)NS(=O)(=O)n3cnc4ccccc43)nc12`, the GI50 with OVCAR-5 was 25.9 µM (inactive); with COLO 205, 27.8 µM (inactive); in the test with HCC 2998, 15.6 µM (inactive); in the test on MDA-MB-231, 27 µM (inactive); in the test with UACC-257, 23 µM (inactive); with ACHN, 32.8 µM (inactive). The GI50 was 22.5 µM (inactive) in the test on OVCAR-8; 31.5 µM (inactive) in the test with HL-60; 35.6 µM (inactive) in the test with TK-10; 37.5 µM (inactive) in the test with A549; 16.5 µM (inactive) in the test on IGROV-1; 32.8 µM (inactive) with DU-145. The GI50 is 43.8 µM (inactive) with OVCAR-4; 15.1 µM (inactive) in the test with T47D; 24 µM (inactive) in the test on SF-539; 38.3 µM (inactive) in the test with SK-OV-3; 18.4 µM (inactive) in the test with NCI-H23; 28.1 µM (inactive) in the test with HCT-116. For the same molecule, the GI50 in the test on CCRF-CEM was 76.6 µM (inactive); in the test on RPMI-8226, 21.5 µM (inactive).
Turning to `CCCCCCCC(=O)N/N=C/c1ccc(Sc2nccn2C)c([N+](=O)[O-])c1`, the GI50 with OVCAR-5 was 18.2 µM (inactive); in the test on COLO 205, 13.7 µM (inactive); in the test on HCC 2998, 13.4 µM (inactive); in the test on MDA-MB-231, 15 µM (inactive); in the test with UACC-257, 13.7 µM (inactive); with ACHN, 21.9 µM (inactive). The GI50 in the test with OVCAR-8 was 14.4 µM (inactive); with HL-60 it was 0.27 µM (active); in the test with TK-10 it was 26.6 µM (inactive); in the test on A549, 27.9 µM (inactive); in the test with IGROV-1, 6.79 µM (inactive); in the test on DU-145, 18.4 µM (inactive). Also, the GI50 with OVCAR-4 was 13.2 µM (inactive); with T47D, 10.7 µM (inactive); with SF-539 it was 17 µM (inactive); in the test with SK-OV-3, 26.7 µM (inactive); in the test with NCI-H23, 18.2 µM (inactive); in the test on HCT-116 it was 14.4 µM (inactive). Also, the GI50 in the test with CCRF-CEM is 0.538 µM (active); in the test on RPMI-8226, 13 µM (inactive).
In the case of `CN(C)c1ccc(/C=C/C(=O)c2ccc(O)cc2)cc1`, the GI50 was 38.6 µM (inactive) in the test on OVCAR-5; 14 µM (inactive) in the test with COLO 205; 15.1 µM (inactive) in the test with HCC 2998; 22.3 µM (inactive) in the test with MDA-MB-231; 7.66 µM (inactive) in the test with UACC-257; 18.8 µM (inactive) in the test on ACHN. The GI50 was 7.29 µM (inactive) in the test on OVCAR-8; 1.79 µM (inactive) in the test on HL-60; 35.3 µM (inactive) with TK-10; 6.27 µM (inactive) in the test with A549; 10.2 µM (inactive) in the test on IGROV-1; 8.67 µM (inactive) with DU-145. For the same molecule, the GI50 in the test on OVCAR-4 is 24.2 µM (inactive); with T47D, 13.5 µM (inactive); with SF-539, 3.2 µM (inactive); with SK-OV-3, 4.78 µM (inactive); with NCI-H23, 11.3 µM (inactive); in the test with HCT-116 it was 3.69 µM (inactive). Besides, the GI50 in the test with CCRF-CEM is 2.83 µM (inactive); with RPMI-8226, 3.85 µM (inactive).
Regarding `O=C1C2C=CC1C1C(=O)OC(=O)C21` (stereo not drawn), the GI50 in the test on OVCAR-5, with COLO 205, with HCC 2998, in the test with MDA-MB-231, in the test with UACC-257 and in the test with ACHN was > 100 µM (inactive) throughout. The GI50 in the test with OVCAR-8, in the test on HL-60, in the test with TK-10, in the test with A549, in the test on IGROV-1 and with DU-145 was > 100 µM (inactive) throughout. In addition, the GI50 with OVCAR-4, in the test on T47D, in the test with SF-539, in the test with SK-OV-3, in the test on NCI-H23 and in the test with HCT-116 was > 100 µM (inactive) each time. Further, the GI50 with CCRF-CEM and in the test with RPMI-8226 was > 100 µM (inactive) each time.
In the case of `[O-][n+]1cc(SCc2ccccc2)ncc1SCc1ccccc1`, the GI50 in the test with OVCAR-5, with COLO 205, with HCC 2998, in the test with MDA-MB-231, with UACC-257 and with ACHN was > 10 µM (inactive) in each case. Besides, the GI50 with OVCAR-8, in the test on HL-60, in the test on TK-10, in the test with A549, in the test with IGROV-1 and in the test on DU-145 was > 10 µM (inactive) each time. Also, the GI50 in the test with OVCAR-4, in the test with T47D, with SF-539, with SK-OV-3, in the test with NCI-H23 and in the test on HCT-116 was > 10 µM (inactive) throughout. Also, the GI50 in the test with CCRF-CEM and with RPMI-8226 was > 10 µM (inactive) throughout.
For `CN1N=C(c2ccccc2)C(C(c2ccccc2[N+](=O)[O-])C2C(=O)N(C)N=C2c2ccccc2)C1=O` (stereo not drawn), the GI50 was > 100 µM (inactive) with OVCAR-5; > 100 µM (inactive) with COLO 205; 53 µM (inactive) with HCC 2998; > 100 µM (inactive) in the test on MDA-MB-231; > 71.4 µM (inactive) in the test with UACC-257; > 100 µM (inactive) with ACHN. Besides, the GI50 was 39.3 µM (inactive) in the test with OVCAR-8; 18.7 µM (inactive) in the test with HL-60; > 100 µM (inactive) with TK-10; > 100 µM (inactive) in the test on A549; 25.1 µM (inactive) with IGROV-1; > 100 µM (inactive) in the test with DU-145. Also, the GI50 with OVCAR-4 was > 100 µM (inactive); in the test on T47D it was > 100 µM (inactive); with SF-539, > 55.5 µM (inactive); in the test on SK-OV-3, > 100 µM (inactive); in the test with NCI-H23 it was > 100 µM (inactive); in the test with HCT-116 it was > 78.7 µM (inactive). The GI50 was 26.8 µM (inactive) in the test on CCRF-CEM and 34.3 µM (inactive) in the test with RPMI-8226.
`COc1ccc2oc(=N)c(C(N)=S)cc2c1`: the GI50 in the test with OVCAR-5 was 29.9 µM (inactive); with COLO 205, 29.8 µM (inactive); with HCC 2998, 17.3 µM (inactive); with MDA-MB-231 it was 18 µM (inactive); in the test on UACC-257, 26.9 µM (inactive); with ACHN it was 21.4 µM (inactive). Further, the GI50 in the test on OVCAR-8 was 18.2 µM (inactive); in the test on HL-60 it was 14.3 µM (inactive); in the test with TK-10 it was 26.1 µM (inactive); in the test on A549 it was 32.1 µM (inactive); in the test on IGROV-1, 29.6 µM (inactive); with DU-145, 27.2 µM (inactive). Moreover, the GI50 with OVCAR-4 is 31.9 µM (inactive); in the test on T47D, 23.7 µM (inactive); in the test on SF-539, 22.1 µM (inactive); in the test with SK-OV-3 it was 33.2 µM (inactive); with HCT-116, 17.4 µM (inactive); with CCRF-CEM it was 20.5 µM (inactive). Also, the GI50 in the test on RPMI-8226 was 21.3 µM (inactive).
With `CCC12CN(C(=O)OC)C3C(Br)C1CCC(=O)C32` (stereo not drawn), the GI50 with OVCAR-5, with COLO 205, in the test with HCC 2998, with MDA-MB-231, in the test on UACC-257 and in the test with ACHN was > 100 µM (inactive) throughout. For the same molecule, the GI50 in the test on OVCAR-8, with HL-60, in the test on TK-10, with A549, with IGROV-1 and in the test on DU-145 was > 100 µM (inactive) throughout. The GI50 with OVCAR-4, in the test on T47D, in the test with SF-539, in the test on SK-OV-3, in the test on NCI-H23 and in the test on CCRF-CEM was > 100 µM (inactive) in each case. Moreover, the GI50 with RPMI-8226 was > 100 µM (inactive).
